PubChem BioAssay AID1963838 (Molecular Pharmacology Branch, DTP, NCI, 2024)

Test system: 855422-203-R-J1-PDC complex spheroid viability
Assay: Anticancer human tumor 855422-203-R-J1-PDC patient-derived bladder carcinoma cell line growth inhibition [POLQ]
Conditions: for IC50: curve of first compound; for viability, T/C: stronger effect = lower value
Protocol: Multicellular complex tumor spheroid response to Polymerase (POL) inhibitors (novobiocin, ART-558, RP6685) in combination with a variety of drugs and investigational agents in selected tumor cell lines
The POL inhibitors (novobiocin, ART-558, and RP6685) were evaluated both individually and in combination with standard of care and investigational anticancer small molecules within a complex spheroid model of solid tumors. . Complex spheroids include a stromal component modeled by human endothelial cells (HUVEC) and fibroblasts modeled by human mesenchymal stem cells (MSCs). The concentration ranges selected for each drug and investigational agent were based upon clinically achievable concentrations if the clinical Cmax of the agent was known.
Compounds. The drugs and investigational agents: novobiocin (NSC847541), ART-558 (NSC835418), RP-6685 (NSC848927), peposertib (NSC802822), ceralasertib (NSC780249), elimusertib (NSC800525), camonsertib (NSC841442), AZD-1390 (NSC803789), olaparib (NSC753686), talazoparib (NSC767125), rucaparib (NSC756644), sotorasib (NSC818433), MRTX-1133 (NSC836407), SN-38 (NSC673596), topotecan (NSC609699), epotoside (NSC141540), doxorubicin (NSC123127), gemcitabine (NSC613327), 5-fluorouracil (NSC19893), paclitaxel (NSC125973), vemurafenib (NSC761431), MSA-2 (NSC828583), SN-011 (NSC837082), adavosertib (NSC754352), prexasertib (NSC758257), carboplatin (NSC241240) and oxaliplatin (NSC266046), were obtained from the National Cancer Institute (NCI) Developmental Therapeutics Program Chemical Repository (21). The FDA-approved anticancer drug set is available from the Developmental Therapeutics Program at https://dtp.cancer.gov/organization/dscb/obtaining/. […] The stock solutions were prepared in dimethyl sulfoxide (DMSO, Sigma-Aldrich, St. Louis, MO, cat. D2650), except for the platinum compounds which were prepared in saline (Quality Biological, Gaithersburg, MD, cat. 114-055-101), at 800-fold the tested concentration and stored at -70 degrees C prior to their use. All drugs and investigational agents were tested over a range starting from a high concentration at or near the clinical Cmax and decreasing in half-log increments. If the clinical Cmax for an agent had not been determined, the highest concentration tested was 10 microM, except for SN-38, which was tested at a high concentration of 1 microM.
Cell Culture. All cells were maintained in an incubator at 37 degrees C and 5% CO2 with 95% humidity. The PDC lines were cultured according to standard operating procedures established by the NCI PDMR (https://pdmr.cancer.gov). Table 3 of the manuscript, lists the cell lines along with the number of the three cell types plated to form the mct-spheroids and media for tumor cell growth. After thawing, all PDC lines, except 997537-175-T-J1-PDC and 415267-285-R-J2-PDC, were cultured in Matrigel-coated flasks prepared with a working solution of 1X Ham's F-12 nutrient mix, without supplementation (Thermo Fisher Scientific, cat. 11765054), 100 U/mL penicillin-streptomycin (Thermo Fisher Scientific, cat. 15140122), and 2.5% Matrigel (Corning Inc., Corning, NY, cat. 354248) for the first three passages. The two PDC lines 997537-175-T-J1-PDC and 415267-285-R-J2-PDC were cultured on uncoated flasks. The 857933-349-R-J2-PDC line was cultured in 6C/Colon 1B media containing advanced DMEM/F-12 (Thermo Fisher Scientific, cat. 12634028), 10 mM HEPES (Thermo Fisher Scientific, cat. 15630080), 1X GlutaMAX supplement (Thermo Fisher Scientific, cat. 35050061), 0.1 mg/mL primocin (InvivoGen, San Diego, CA, cat. ant-pm-2), 10% defined fetal bovine serum, heat inactivated (HyClone Laboratories Inc., Logan, UT, cat. SH30070.03HI), 50% L-WRN conditioned media (ATCC, cat. CRL-3276), 1.25 mM N-Acetyl-L-cysteine (Sigma-Aldrich, cat. A9165), 10 mM nicotinamide (Sigma-Aldrich, cat. N0636), 1X B-27 supplement (Thermo Fisher Scientific, cat. 17504044), 1X N-2 supplement (Thermo Fisher Scientific, cat. […]

[1] = second compound 0.0316 µM, first compound 0.0316 µM
[2] = second compound 0.0316 µM, first compound 0.1 µM
[3] = second compound 0.0316 µM, first compound 0.316 µM
[4] = second compound 0.0316 µM, first compound 1 µM
[5] = second compound 0.0316 µM, first compound 3.16 µM
[6] = second compound 0.0316 µM, first compound 10 µM
[7] = second compound 0.1 µM, first compound 0.0316 µM
[8] = second compound 0.1 µM, first compound 0.1 µM
[9] = second compound 0.1 µM, first compound 0.316 µM
[10] = second compound 0.1 µM, first compound 1 µM
[11] = second compound 0.1 µM, first compound 3.16 µM
[12] = second compound 0.1 µM, first compound 10 µM
[13] = second compound 0.316 µM, first compound 0.0316 µM
[14] = second compound 0.316 µM, first compound 0.1 µM
[15] = second compound 0.316 µM, first compound 0.316 µM
[16] = second compound 0.316 µM, first compound 1 µM
[17] = second compound 0.316 µM, first compound 3.16 µM
[18] = second compound 0.316 µM, first compound 10 µM
[19] = second compound 1 µM, first compound 0.0316 µM
[20] = second compound 1 µM, first compound 0.1 µM
[21] = second compound 1 µM, first compound 0.316 µM
[22] = second compound 1 µM, first compound 1 µM
[23] = second compound 1 µM, first compound 3.16 µM
[24] = second compound 1 µM, first compound 10 µM
[25] = second compound 3.16 µM, first compound 0.0316 µM
[26] = second compound 3.16 µM, first compound 0.1 µM
[27] = second compound 3.16 µM, first compound 0.316 µM
[28] = second compound 3.16 µM, first compound 1 µM
[29] = second compound 3.16 µM, first compound 3.16 µM
[30] = second compound 3.16 µM, first compound 10 µM
[31] = second compound 10 µM, first compound 0.0316 µM
[32] = second compound 10 µM, first compound 0.1 µM
[33] = second compound 10 µM, first compound 0.316 µM
[34] = second compound 10 µM, first compound 1 µM
[35] = second compound 10 µM, first compound 3.16 µM
[36] = second compound 10 µM, first compound 10 µM
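Note: spheroids exposed to compounds for seven days before readout.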

## CC1COCCN1c1cc(C2(S(C)(=N)=O)CC2)nc(-c2ccnc3[nH]ccc23)n1 (centres undefined) + Cc1cccc(N(C)C(=O)C2C(O)CCN2c2nc(C)cc(C(F)(F)F)c2C#N)c1
Second compound 0.0316 µM
  IC50: 2.56 µM
Second compound 0.1 µM
  IC50: 2.66 µM
Second compound 0.316 µM
  IC50: 2.5 µM
Second compound 1 µM
  IC50: 2.49 µM
Second compound 3.16 µM
  IC50: 2.37 µM
Second compound 10 µM
  IC50: 2.14 µM
[1]
  viability, T/C: 112%
[2]
  viability, T/C: 97.3%
[3]
  viability, T/C: 107%
[4]
  viability, T/C: 106%
[5]
  viability, T/C: 37.4%
[6]
  viability, T/C: 12.5%
[7]
  viability, T/C: 94.7%
[8]
  viability, T/C: 107%
[9]
  viability, T/C: 115%
[10]
  viability, T/C: 100%
[11]
  viability, T/C: 41.1%
[12]
  viability, T/C: 10.7%
[13]
  viability, T/C: 96.3%
[14]
  viability, T/C: 106%
[15]
  viability, T/C: 101%
[16]
  viability, T/C: 107%
[17]
  viability, T/C: 36.6%
[18]
  viability, T/C: 10.6%
[19]
  viability, T/C: 110%
[20]
  viability, T/C: 123%
[21]
  viability, T/C: 115%
[22]
  viability, T/C: 103%
[23]
  viability, T/C: 36%
[24]
  viability, T/C: 10.8%
[25]
  viability, T/C: 105%
[26]
  viability, T/C: 119%
[27]
  viability, T/C: 94.5%
[28]
  viability, T/C: 105%
[29]
  viability, T/C: 31.4%
[30]
  viability, T/C: 10.2%
[31]
  viability, T/C: 103%
[32]
  viability, T/C: 102%
[33]
  viability, T/C: 105%
[34]
  viability, T/C: 97.5%
[35]
  viability, T/C: 25.7%
[36]
  viability, T/C: 14.1%

## CCCS(=O)(=O)Nc1ccc(F)c(C(=O)c2c[nH]c3ncc(-c4ccc(Cl)cc4)cc23)c1F + Cc1cccc(N(C)C(=O)C2C(O)CCN2c2nc(C)cc(C(F)(F)F)c2C#N)c1
Second compound 0.0316 µM
  IC50: 6.14 µM
Second compound 0.1 µM
  IC50: 6.18 µM
Second compound 0.316 µM
  IC50: 6.52 µM
Second compound 1 µM
  IC50: 6.04 µM
Second compound 3.16 µM
  IC50: 6.48 µM
Second compound 10 µM
  IC50: 6.72 µM
[1]
  viability, T/C: 104%
[2]
  viability, T/C: 131%
[3]
  viability, T/C: 99.9%
[4]
  viability, T/C: 104%
[5]
  viability, T/C: 109%
[6]
  viability, T/C: 6.85%
[7]
  viability, T/C: 98%
[8]
  viability, T/C: 119%
[9]
  viability, T/C: 99%
[10]
  viability, T/C: 103%
[11]
  viability, T/C: 121%
[12]
  viability, T/C: 8.21%
[13]
  viability, T/C: 103%
[14]
  viability, T/C: 125%
[15]
  viability, T/C: 101%
[16]
  viability, T/C: 110%
[17]
  viability, T/C: 115%
[18]
  viability, T/C: 14.1%
[19]
  viability, T/C: 97%
[20]
  viability, T/C: 111%
[21]
  viability, T/C: 96%
[22]
  viability, T/C: 107%
[23]
  viability, T/C: 123%
[24]
  viability, T/C: 5.7%
[25]
  viability, T/C: 97.8%
[26]
  viability, T/C: 133%
[27]
  viability, T/C: 139%
[28]
  viability, T/C: 127%
[29]
  viability, T/C: 128%
[30]
  viability, T/C: 4.79%
[31]
  viability, T/C: 109%
[32]
  viability, T/C: 134%
[33]
  viability, T/C: 139%
[34]
  viability, T/C: 180%
[35]
  viability, T/C: 142%
[36]
  viability, T/C: 2.01%
